Measurements: patent US9695200B2, “Heterocyclic ITK inhibitors for treating inflammation and cancer” (Confluence Life Sciences, Inc., priority 2015, dated 2017)

Test system: phospho-PLCγ1 in Jurkat cells
Experiment: ITK target modulation PLC-γ assay (phospho-PLCγ1, αCD3-stimulated Jurkat cells)
Format: cell-based, human
Conditions: Homo sapiens, 1 hour compound incubation, αCD3 Dynabeads stimulation 8 minutes, MSD phospho-PLCγ1, read-out: PLC-γ Inhibition IC50
Protocol: Jurkat cells, an immortalized human T-lymphocyte cell line, were maintained in RPMI media, 10% FBS, 1% pen/strep/glutamine (growth media). Cells were plated in growth media plus 50 μM β-mercaptoethanol at 400,000 cells per well of a 96 well plate.
Compounds were serially diluted into DMSO, and then into media to concentrations 10× that of the final assay concentration. Compounds were then added to the cells with the final assay DMSO concentration being 0.1%. Cells were incubated for 1 hour at 37° C.
Following compound incubation, αCD3 Dynabeads were added at 1 bead/cell to each assay well and incubated at 37° C. for 7 minutes. Unstimulated control wells received media only. The plate was then placed on a 96-well magnetic plate for an additional 60 seconds (total assay stimulation time equals 8 minutes). The plate was then dumped and gently patted dry on a paper towel. 50 μl of complete Meso Scale Discovery (MSD) Lysis buffer was then added to each well. Samples were assayed for phospho-PLCγ1 using Meso Scale Discovery technology.
The assay stimulation time has been optimized for detection of Itk kinase-mediated phosphorylation of PLCγ1. The timing and detection reagents for this assay could be adjusted to capture phosphorylation events upstream (e.g., phospho-ZAP70) or downstream of the Itk/PLCγ1 node, provided the appropriate phospho-specific antibodies are available for building of an MSD assay.

SMILES	IC50 [nM]
N#C/C(=C\c1cccc(-c2cnc3[nH]cc(-c4ccc(F)nc4)c3c2)c1)C(N)=O [Example 63, (E)-2-cyano-3-(3-(3-(6-fluoropyridin-3-yl)-1H-pyrrolo[2,3-b]pyridin-5-yl)phenyl)acryl-amide]	> 5000
C=CC(=O)Nc1cccc(-c2cnc3[nH]cc(-c4cccc5ccccc45)c3c2)c1 [Example 53, N-(3-(3-(naphthalen-1-yl)-1H-pyrrolo[2,3-b]pyridin-5-yl)phenyl)acryl-amide]	> 5000
C=CC(=O)NC1CN(c2cnc3[nH]cc(-c4ccnc(C#N)c4)c3c2)C1 [Example 5, N-(1-(3-(2-Cyanopyridin-4-yl)-1H-pyrrolo[2,3-b]pyridin-5-yl)azetidin-3-yl)acrylamide]	> 5000
C=CC(=O)Nc1cccc(-c2cnc3[nH]cc(-c4cc(C)nc(OC)c4)c3c2)c1 [Example 29, N-(3-(3-(2-methoxy-6-methylpyridin-4-yl)-1H-pyrrolo[2,3-b]pyridin-5-yl)phenyl)acryl-amide]	1000 to 5000
C=CC(=O)Nc1cccc(-c2cnc3[nH]cc(-c4cc(C)ncn4)c3c2)c1 [Example 44, N-(3-(3-(6-methylpyrimidin-4-yl)-1H-pyrrolo[2,3-b]pyridin-5-yl)phenyl)acryl-amide]	1000 to 5000
C=CC(=O)Nc1cccc(-c2cnc3[nH]cc(-c4ccc(=O)n(CC(C)(C)O)c4)c3c2)c1 [Example 66, N-(3-(3-(1-(2-hydroxy-2-methylpropyl)-6-oxo-1,6-dihydropyridin-3-yl)-1H-pyrrolo[2,3-b]pyridin-5-yl)phenyl)acryl-amide]	1000 to 5000
C=CC(=O)Nc1cccc(-c2cnc3[nH]cc(-c4ccc(OC)nc4)c3c2)c1 [Example 30, N-(3-(3-(6-methoxypyridin-3-yl)-1H-pyrrolo[2,3-b]pyridin-5-yl)phenyl)acryl-amide]	1000 to 5000
C=CC(=O)Nc1cccc(-c2cnc3[nH]cc(-c4cccc5occc45)c3c2)c1 [Example 82, N-(3-(3-(benzofuran-4-yl)-1H-pyrrolo[2,3-b]pyridin-5-yl)phenyl)acryl-amide]	> 5000
C=CC(=O)Nc1cccc(-c2cnc3[nH]cc(-c4cccc5ncccc45)c3c2)c1 [Example 54, N-(3-(3-(quinolin-5-yl)-1H-pyrrolo[2,3-b]pyridin-5-yl)phenyl)acryl-amide]	1000 to 5000
C=CC(=O)Nc1cccc(-c2cnc3[nH]cc(-c4cccc(C#N)c4)c3c2)c1 [Example 92, N-(3-(3-(3-cyanophenyl)-1H-pyrrolo[2,3-b]pyridin-5-yl)phenyl)acryl-amide]	1000 to 5000
C=CC(=O)Nc1cccc(-c2cnc3[nH]cc(-c4cncc5[nH]ccc45)c3c2)c1 [Example 77, N-(3-(3-(1H-pyrrolo[2,3-c]pyridin-4-yl)-1H-pyrrolo[2,3-b]pyridin-5-yl)phenyl)acryl-amide]	> 5000
COC/C=C/C(=O)Nc1cccc(-c2cnc3[nH]cc(-c4ccnc(OC)c4)c3c2)c1 [Example 65, (E)-4-methoxy-N-(3-(3-(2-methoxypyridin-4-yl)-1H-pyrrolo[2,3-b]pyridin-5-yl)phenyl)but-2-enamide]	> 5000
Cc1cc(-c2c[nH]c3ncc(-c4cccc(/C=C(\C#N)C(N)=O)c4)cc23)ccn1 [Example 33, (E)-2-cyano-3-(3-(3-(2-methylpyridin-4-yl)-1H-pyrrolo[2,3-b]pyridin-5-yl)phenyl)acryl-amide]	1000 to 5000
C=CC(=O)Nc1cc(-c2cnc3[nH]cc(-c4ccnc(OC)c4)c3c2)cc(C(O)(CC)CC)c1 [Example 83, N-(3-(3-hydroxypentan-3-yl)-5-(3-(2-methoxypyridin-4-yl)-1H-pyrrolo[2,3-b]pyridin-5-yl)phenyl)acryl-amide]	1000 to 5000
C=CC(=O)Nc1cccc(-c2cnc3[nH]cc(-c4cncc(Cl)c4)c3c2)c1 [Example 43, N-(3-(3-(5-chloropyridin-3-yl)-1H-pyrrolo[2,3-b]pyridin-5-yl)phenyl)acryl-amide]	1000 to 5000
COc1cc(/C=C(\C#N)C(N)=O)cc(-c2cnc3[nH]cc(-c4ccnc(OC)c4)c3c2)c1 [Example 60, (E)-2-cyano-3-(3-methoxy-5-(3-(2-methoxypyridin-4-yl)-1H-pyrrolo[2,3-b]pyridin-5-yl)phenyl)acryl-amide]	> 5000
C=CC(=O)Nc1cccc(-c2cnc3[nH]cc(-c4cccnc4)c3c2)c1 [Example 12, N-(3-(3-(pyridin-3-yl)-1H-pyrrolo[2,3-b]pyridin-5-yl)phenyl)acryl-amide]	1000 to 5000
C=CC(=O)Nc1cccc(-c2cnc3[nH]cc(-c4cc(C)cc(OC)n4)c3c2)c1 [Example 52, N-(3-(3-(6-methoxy-4-methylpyridin-2-yl)-1H-pyrrolo[2,3-b]pyridin-5-yl)phenyl)acryl-amide]	> 5000
C=CC(=O)Nc1cccc(-c2cnc3[nH]cc(-c4ccnc5ccccc45)c3c2)c1 [Example 64, N-(3-(3-(quinolin-4-yl)-1H-pyrrolo[2,3-b]pyridin-5-yl)phenyl)acryl-amide]	1000 to 5000
C=CC(=O)Nc1cccc(-c2cnc3[nH]cc(-c4cccc(OC)c4)c3c2)c1 [Example 51, N-(3-(3-(3-methoxyphenyl)-1H-pyrrolo[2,3-b]pyridin-5-yl)phenyl)acryl-amide]	1000 to 5000
C=C(C)C(=O)Nc1cc(-c2cnc3[nH]cc(-c4ccnc(OC)c4)c3c2)cc(-c2cnn(C)c2)n1 [Example 70, N-(4-(3-(2-methoxypyridin-4-yl)-1H-pyrrolo[2,3-b]pyridin-5-yl)-6-(1-methyl-1H-pyrazol-4-yl)pyridin-2-yl)methacryl-amide]	> 5000

Continued, values first:

IC50 [nM]	SMILES
1000 to 5000	C=CC(=O)Nc1cc(-c2cnc3[nH]cc(-c4ccc(OC)nc4)c3c2)cc(C(F)(F)F)c1 [Example 58, N-(3-(3-(6-methoxypyridin-3-yl)-1H-pyrrolo[2,3-b]pyridin-5-yl)-5-(trifluoromethyl)phenyl)acryl-amide]
< 1000	C=CC(=O)Nc1cc(OC)cc(-c2cnc3[nH]cc(-c4ccncc4)c3c2)c1 [Example 22, N-(3-methoxy-5-(3-(pyridin-4-yl)-1H-pyrrolo[2,3-b]pyridin-5-yl)phenyl)acryl-amide]
1000 to 5000	C=CC(=O)Nc1cccc(-c2cnc3[nH]cc(-c4ccc(NC)nc4)c3c2)c1 [Example 48, N-(3-(3-(6-(methylamino)pyridin-3-yl)-1H-pyrrolo[2,3-b]pyridin-5-yl)phenyl)acryl-amide]
1000 to 5000	C=CC(=O)Nc1cccc(-c2cnc3[nH]cc(-c4cn(CC5CC5)c(=O)c5[nH]ccc45)c3c2)c1 [Example 88, N-(3-(3-(6-(cyclopropyl-methyl)-7-oxo-6,7-dihydro-1H-pyrrolo[2,3-c]pyridin-4-yl)-1H-pyrrolo[2,3-b]pyridin-5-yl)phenyl)acryl-amide]
< 1000	C=CC(=O)Nc1cccc(-c2cnc3[nH]cc(-c4ccnc5[nH]ccc45)c3c2)c1 [Example 62, N-(3-(1H,1′H-[3,4′-bipyrrolo[2,3-b]pyridin]-5-yl)phenyl)acryl-amide]
< 1000	C=CC(=O)Nc1cc(-c2cnc3[nH]cc(-c4ccnc(F)c4)c3c2)cc(C(F)(F)F)c1 [Example 61, N-(3-(3-(2-fluoropyridin-4-yl)-1H-pyrrolo[2,3-b]pyridin-5-yl)-5-(trifluoromethyl)phenyl)acryl-amide]
< 1000	C=CC(=O)Nc1cccc(-c2cnc3[nH]cc(-c4ccnc(F)c4)c3c2)c1 [Example 25, N-(3-(3-(2-fluoropyridin-4-yl)-1H-pyrrolo[2,3-b]pyridin-5-yl)phenyl)acryl-amide]
< 1000	C=CC(=O)Nc1cccc(-c2cnc3[nH]cc(-c4ccnc(NC)c4)c3c2)c1 [Example 32, N-(3-(3-(2-(methylamino)pyridin-4-yl)-1H-pyrrolo[2,3-b]pyridin-5-yl)phenyl)acryl-amide]
1000 to 5000	C=CC(=O)Nc1cccc(-c2cnc3[nH]cc(-c4cc(NC)ncn4)c3c2)c1 [Example 56, N-(3-(3-(6-(methylamino)pyrimidin-4-yl)-1H-pyrrolo[2,3-b]pyridin-5-yl)phenyl)acryl-amide]
< 1000	C=CC(=O)Nc1cccc(-c2cnc3[nH]cc(-c4ccnc(C)c4)c3c2)c1 [Example 26, N-(3-(3-(2-methylpyridin-4-yl)-1H-pyrrolo[2,3-b]pyridin-5-yl)phenyl)acryl-amide]
< 1000	C=CC(=O)Nc1cc(-c2cnc3[nH]cc(-c4ccncc4)c3c2)cc(C(F)(F)F)c1 [Example 20, N-(3-(3-(pyridin-4-yl)-1H-pyrrolo[2,3-b]pyridin-5-yl)-5-(trifluoromethyl)phenyl)acryl-amide]
< 1000	C=CC(=O)Nc1cccc(-c2cnc3[nH]cc(-c4ccncn4)c3c2)c1 [Example 49, N-(3-(3-(pyrimidin-4-yl)-1H-pyrrolo[2,3-b]pyridin-5-yl)phenyl)acryl-amide]
< 1000	C=CC(=O)Nc1cc(-c2cnc3[nH]cc(-c4ccc(F)nc4)c3c2)cc(C(F)(F)F)c1 [Example 57, N-(3-(3-(6-fluoropyridin-3-yl)-1H-pyrrolo[2,3-b]pyridin-5-yl)-5-(trifluoromethyl)phenyl)acryl-amide]
< 1000	C=CC(=O)Nc1cccc(-c2cnc3[nH]cc(-c4ccc(F)nc4)c3c2)c1 [Example 46, N-(3-(3-(6-fluoropyridin-3-yl)-1H-pyrrolo[2,3-b]pyridin-5-yl)phenyl)acryl-amide]
< 1000	C=CC(=O)Nc1cccc(-c2cnc3[nH]cc(-c4ccnc(NC)n4)c3c2)c1 [Example 91, N-(3-(3-(2-(methylamino)pyrimidin-4-yl)-1H-pyrrolo[2,3-b]pyridin-5-yl)phenyl)acryl-amide]
